Source: patent publication US9040545B2, “Heterocyclyl pyrazolopyrimidine analogues as selective JAK inhibitors” (Cellzome Limited, priority 2010, dated 2015)

Key:
Aurora B = target: T1, Aurora B (Homo sapiens, UniProt Q96GD4); test: Kinobeads assay, Aurora B; format: binding; conditions: for IC50: lysate of pervanadate-treated Jurkat cells, read-out: Inhibition values (IC50) Aur B
T1 construct: cell lysates from Jurkat cells (ATCC TIB-152) used; endogenous in cells; host or cells: Jurkat cells (ATCC TIB-152), treated with pervanadate

JAK2 = target: T2, JAK2 (Homo sapiens, UniProt O60674); test: Kinobeads assay, JAK2; format: binding; conditions: mixed Molt4/Ramos lysate, read-out: Inhibition values (IC50) JAK2
T2 construct: endogenous in cells; host or cells: mixed Molt4/Ramos lysate (1:2)
Outline: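 IC50 values come from dose-response curves of JAK2/JAK3 captured on immobilized aminopyrido-pyrimidine beads, quantified by antibody dot blot with infrared read-out. Compounds (1:3 series, 9 steps, from 5 mM DMSO stock) competed for 3 h in the cold with mixed Molt4/Ramos lysate (1:2, 10 mg/mL protein).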

T1 sequence (Q96GD4 whole entry): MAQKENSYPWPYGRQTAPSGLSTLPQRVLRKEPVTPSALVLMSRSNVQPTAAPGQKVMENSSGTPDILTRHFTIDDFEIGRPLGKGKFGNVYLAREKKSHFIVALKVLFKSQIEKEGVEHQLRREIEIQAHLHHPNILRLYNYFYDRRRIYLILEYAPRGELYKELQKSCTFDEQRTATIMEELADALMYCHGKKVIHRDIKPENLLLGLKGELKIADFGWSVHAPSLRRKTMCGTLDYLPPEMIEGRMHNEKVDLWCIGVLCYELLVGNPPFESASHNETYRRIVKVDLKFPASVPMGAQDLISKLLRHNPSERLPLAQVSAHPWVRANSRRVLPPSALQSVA
T2 sequence (O60674 whole entry): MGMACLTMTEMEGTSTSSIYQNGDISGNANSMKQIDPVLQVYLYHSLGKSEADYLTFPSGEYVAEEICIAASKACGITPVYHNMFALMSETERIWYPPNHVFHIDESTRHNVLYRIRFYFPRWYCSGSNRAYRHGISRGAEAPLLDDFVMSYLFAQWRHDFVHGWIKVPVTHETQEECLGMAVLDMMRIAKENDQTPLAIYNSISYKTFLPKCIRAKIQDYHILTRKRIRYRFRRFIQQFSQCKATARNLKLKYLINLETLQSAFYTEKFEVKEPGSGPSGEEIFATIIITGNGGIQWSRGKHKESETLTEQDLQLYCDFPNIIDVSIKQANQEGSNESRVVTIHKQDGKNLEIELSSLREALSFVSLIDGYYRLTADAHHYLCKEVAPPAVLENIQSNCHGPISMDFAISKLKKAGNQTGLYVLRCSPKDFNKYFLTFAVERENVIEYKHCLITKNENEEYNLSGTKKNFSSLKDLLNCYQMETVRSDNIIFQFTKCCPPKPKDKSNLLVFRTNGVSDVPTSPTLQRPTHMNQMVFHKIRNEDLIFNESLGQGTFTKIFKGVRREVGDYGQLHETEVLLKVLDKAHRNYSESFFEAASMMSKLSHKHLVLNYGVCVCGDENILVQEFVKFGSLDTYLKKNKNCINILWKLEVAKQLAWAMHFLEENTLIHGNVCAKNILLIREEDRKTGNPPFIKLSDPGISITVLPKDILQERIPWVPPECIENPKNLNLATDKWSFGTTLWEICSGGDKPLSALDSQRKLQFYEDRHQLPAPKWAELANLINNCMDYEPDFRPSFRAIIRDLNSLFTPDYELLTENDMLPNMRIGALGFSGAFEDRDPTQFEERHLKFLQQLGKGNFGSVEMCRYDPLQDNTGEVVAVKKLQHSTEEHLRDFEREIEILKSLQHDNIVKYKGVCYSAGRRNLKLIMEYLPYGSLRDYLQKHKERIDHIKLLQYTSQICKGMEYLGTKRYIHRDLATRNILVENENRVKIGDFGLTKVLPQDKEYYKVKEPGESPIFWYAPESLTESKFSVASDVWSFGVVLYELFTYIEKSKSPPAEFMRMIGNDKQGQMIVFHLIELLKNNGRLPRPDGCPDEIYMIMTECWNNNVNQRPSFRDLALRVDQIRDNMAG

JAK3/AurB Fold Selectivity (Aurora B)	IC50 (Aurora B) [nM]	IC50 (JAK2) [nM]	Structure (SMILES)
10-50 Fold	100 to 1000	1000 to 10000	Cn1cc(-c2cccc(Cn3ncc4cnc(Nc5cnn(CCO)c5)nc43)c2F)cn1 [Example 124, 2-(4-((1-(2-fluoro-3-(1-methyl-1H-pyrazol-4-yl)benzyl)-1H-pyrazolo[3,4-d]pyrimidin-6-yl)amino)-1H-pyrazol-1-yl)ethanol]
>50 Fold	1000 to 10000	100 to 1000	Cn1cc(Nc2ncc3cnn(Cc4cc(F)cc(-c5cnn(C)c5)c4)c3n2)cn1 [Example 125, 1-(3-fluoro-5-(1-methyl-1H-pyrazol-4-yl)benzyl)-N-(1-methyl-1H-pyrazol-4-yl)-1H-pyrazolo[3,4-d]pyrimidin-6-amine]
>50 Fold	≥ 10000	≥ 10000	Cn1cc(Nc2ncc3cnn(Cc4cc(-c5cnn(C)c5)cc(F)c4F)c3n2)cn1 [Example 126, 1-(2,3-difluoro-5-(1-methyl-1H-pyrazol-4-yl)benzyl)-N-(1-methyl-1H-pyrazol-4-yl)-1H-pyrazolo[3,4-d]pyrimidin-6-amine]
10-50 Fold	100 to 1000	1000 to 10000	Cn1cc(-c2cc(F)c(F)c(Cn3ncc4cnc(Nc5cnn(CCO)c5)nc43)c2)cn1 [Example 127, 2-(4-((1-(2,3-difluoro-5-(1-methyl-1H-pyrazol-4-yl)benzyl)-1H-pyrazolo[3,4-d]pyrimidin-6-yl)amino)-1H-pyrazol-1-yl)ethanol]
